In test [1] the test system is μ receptors for the opioids (MOR). The test is described as follows: mRNA expression of the μ receptors for the opioids in epithelial cells stimulated by microorganisms (real-time PCR). Type of test: cell-based. (In general: In qPCR the cycle at which signal appears reflects the starting amount.)
For test [2], the system named is CB1 cannabinoid receptors. The test is described as follows: mRNA expression of the CB1 receptors in epithelial cells stimulated by microorganisms (real-time PCR). Type of test: cell-based.
The next test deals with CB2. The test is described as follows: CB2 immunohistochemistry of colonic epithelial cells of mice. The note with it: mouse colon sections, 10^9 CFU once a day for fourteen days. Format: in vivo, Balb/c mice.
The subject of another test is CB1. The test is described as follows: CB1 immunohistochemistry of colonic epithelial cells of mice. Type of test: in vivo, Balb/c mice. The note with it: mouse colon sections, 10^9 CFU once a day for fourteen days.
The test system of a further test is MOR. The test is described as follows: MOR immunohistochemistry of colonic epithelial cells of mice. Format: in vivo, Balb/c mice. The note with it: mouse colon sections, 10^9 CFU once a day for fourteen days.
A further test concerns KC. The test is described as follows: Colonic KC mRNA expression in mice (real-time PCR). Type of test: in vivo, Balb/c mice.
The subject of another test is IL-1β. The test is described as follows: Colonic IL-1 beta mRNA expression in mice (real-time PCR). Type of test: in vivo, Balb/c mice.
The next test has as its system mu-opioid receptor (MOR). Further details: species or system Balb/c mice. The settings on record: mouse, in vivo.
A further test has as its system CB2 receptors. The test is described as follows: mRNA expression of the CB2 receptors in epithelial cells stimulated by microorganisms (real-time PCR). Format: cell-based.
Another test concerns TNFα. In words: Colonic TNF alpha mRNA expression in mice (real-time PCR). Type of test: in vivo, Balb/c mice.
Setting [3] is: Balb/c mice, oral 10^9 CFU during 15 days.
Where [4] appears, read: mouse colon, 14 days of administration.

Consider `O=C(/C=C/c1ccc(O)c(O)c1)OCCc1ccccc1` [CAPE, caffeic acid phenetyl ester, reference compound], for which, in [1] (HT-29 cells pre-treated with CAPE, stimulated with L. acidophilus), the “effect of NFkappaB pathway inhibition on the expression of MOR” value is listed as “did not induce modifications of the expression of MOR”.

Take Lactobacillus acidophilus: in [2] (ATCC HTB-38 epithelial cells, after 3 hours' incubation (FIG. 2)), the “increase in the basal expression level of the mRNA of CB1” value is on record as “approximately 1000 fold”. This compound also had a CB1 expression in [2] (HT-29 or Caco-2 cells, 100 bacteria/cell, 0 to 6 hours, p<0.05) of 848±180. Moreover, the “epithelial stained cells for CB2” value in the test with CB2 is on record as 40±7%. In the test on CB1, the “epithelial stained cells for CB1” value worked out at 60±8%. Besides, the “epithelial stained cells for MOR” value in the test on MOR is listed as 60±10%. Also, the “diminution of the expression of colonic inflammatory cytokines (KC)” value in the test with KC (setting [3]) was “at least 50%”. Further, in the test on KC (setting [4]), the “decreased expression of KC mRNA level compared to controls” value is listed as “More than 50%”. For the same compound, in the test on IL-1β (setting [3]), the “diminution of the expression of colonic inflammatory cytokines (IL-1 beta)” value was “at least 50%”. For the same compound, the “decreased expression of IL-1β mRNA level compared to controls” value in the test on IL-1β (setting [4]) was “More than 50%”. Also, the “induction of the μ receptors for the opioids (in words)” value in test [1] (ATCC HTB-38 epithelial cells (FIG. 1), comparator TNF-α 10 ng/ml) is listed as “of the same order of magnitude as that obtained by TNF-α”. Besides, in test [1] (ATCC HTB-38 epithelial cells, after 3 hours' incubation (FIG. 1)), the “increase in the basal expression level of the mRNA of the μ receptors for the opioids” value was “approximately 1000 fold”. Moreover, the “MOR expression in the epithelial cells (in words)” value in [1] (HT-29 or Caco-2 cells, 100 bacteria/cell, from the first hour of incubation) is “strong MOR expression”. Further, the “increase of MOR mRNA expression in the colon vs untreated animals” value in the test on mu-opioid receptor (MOR) was 24 fold. Moreover, the “expression of MOR mRNA at the colonic level” value with mu-opioid receptor (MOR) (po) came to 24±0.75. The “increase in the basal expression level of the mRNA of the CB2 receptors” value in the test with CB2 receptors (ATCC HTB-38 epithelial cells, after 3 hours' incubation (FIG. 3)) is given as “approximately 100 fold”. In addition, the CB2 expression in the test on CB2 receptors (HT-29 or Caco-2 cells, 100 bacteria/cell, 0 to 6 hours, p<0.01) is 1498±333. In addition, the “diminution of the expression of colonic inflammatory cytokines (TNF alpha)” value in the test with TNFα (setting [3]) is “at least 50%”. Besides, the “decreased expression of TNFα mRNA level compared to controls” value with TNFα (setting [4]) is “More than 50%”.

These data come from patent US20180036355A1 (priority 2004, published 2018).
